Values quoted from earlier work in paper PMC12030253, “New Temporin A Analogues Modified in Positions 1 and 10—Synthesis and Biological Studies” (Pharmaceutics, 2025).
Like-named read-outs stand apart in the source and are kept apart here. Ends that are not written are not given here.

Experiments:
Parameters in all cases: method as in PMID 38931840
MCF-7 cells = details: cited from earlier work
[1] = system: Bacillus subtilis NBIMCC 3562; details: cited from earlier work; for Percentage-based inhibition compared to antibiotic, B. subtilis 3562: chloramphenicol taken as 100%; for Inhibition zone B. subtilis 3562: 20 µL per disk
[2] = system: Arthrobacter oxydans NBIMCC 9333; details: cited from earlier work; for Percentage-based inhibition compared to antibiotic, A. oxydans 9333: gentamicin taken as 100%; for Inhibition zone A. oxydans 9333: 20 µL per disk
[3] = system: Escherichia coli NBIMCC 8785; details: broth dilution, 0-320 µg/mL, 24 h; cited from earlier work
[4] = system: Arthrobacter oxydans NBIMCC 9333; details: broth dilution, 0-320 µg/mL, 24 h; cited from earlier work
[5] = system: Candida albicans NBIMCC 74; details: broth dilution, 0-320 µg/mL, 24 h; cited from earlier work
[6] = system: Bacillus subtilis NBIMCC 3562; details: broth dilution, 0-320 µg/mL, 24 h; cited from earlier work
[7] = system: Pseudomonas aeruginosa NBIMCC 3700; details: cited from earlier work; for Percentage-based inhibition compared to antibiotic, P. aeruginosa 3700: gentamicin taken as 100%; for Inhibition zone P. aeruginosa 3700: 20 µL per disk
BALB 3T3 cells = details: cited from earlier work; for CC50: BALB 3T3 cells, NRU
[8] = system: Pseudomonas aeruginosa NBIMCC 3700; details: broth dilution, 0-320 µg/mL, 24 h; cited from earlier work
MCF-12F cells = details: MTT, 72 h, non-tumorigenic cells; read-out: Mean IC50 ± SD MCF-12F; cited from earlier work
[9] = system: Escherichia coli NBIMCC 8785; details: 20 µL per disk, cited from earlier work
MDA-MB-231 cells = details: cited from earlier work

FLPLIGRVL-S-GILNH2 (FLPLIGRVLSGIL-NH2) [DTA, parent peptide Temporin A, C-terminal amide]
IC50 (MCF-7 cells; MTT, 72 h, read-out: Mean IC50 ± SD MCF-7): 73.2 ± 3.36 µM
Selectivity Index (SI) MCF-7 (MCF-7 cells; SI = IC50 (MCF-12F)/IC50 (MCF-7)): 1.90
Percentage-based inhibition compared to antibiotic, B. subtilis 3562 ([1]; 1.4 mg/mL): 33.8%
Percentage-based inhibition compared to antibiotic, B. subtilis 3562 ([1]; 10 mg/mL): 33.8%
Inhibition zone B. subtilis 3562 ([1]; peptide 1.4 mg/mL): 8.8 ± 0.3 mm
Inhibition zone B. subtilis 3562 ([1]; peptide 10 mg/mL): 8.8 ± 0.8 mm
Percentage-based inhibition compared to antibiotic, A. oxydans 9333 ([2]; 1.4 mg/mL): 37.8%
Percentage-based inhibition compared to antibiotic, A. oxydans 9333 ([2]; 10 mg/mL): 53.9%
Inhibition zone A. oxydans 9333 ([2]; peptide 1.4 mg/mL): 6.8 ± 0.3 mm
Inhibition zone A. oxydans 9333 ([2]; peptide 10 mg/mL): 9.7 ± 0.6 mm
MIC E. coli 8785 [3]: 320 µg/mL
MIC A. oxydans 9333 [4]: 80 µg/mL
MIC C. albicans 74 [5]: 320 µg/mL
MIC B. subtilis 3562 [6]: 80 µg/mL
Percentage-based inhibition compared to antibiotic, P. aeruginosa 3700 ([7]; 1.4 mg/mL): 45.9%
Percentage-based inhibition compared to antibiotic, P. aeruginosa 3700 ([7]; 10 mg/mL): 54.7%
Inhibition zone P. aeruginosa 3700 ([7]; peptide 1.4 mg/mL): 7.8 ± 0.3 mm
Inhibition zone P. aeruginosa 3700 ([7]; peptide 10 mg/mL): 9.3 ± 0.6 mm
CC50 (BALB 3T3 cells; irradiated 2.4 J/cm^2, read-out: Mean CC50 ± SD +Irr): 105 ± 4.88 µM
CC50 (BALB 3T3 cells; without irradiation, read-out: Mean CC50 ± SD −Irr): 106 ± 4.18 µM
PIF (Photo-Irritation Factor) (BALB 3T3 cells; PIF < 2 not phototoxic): 1.01
MIC P. aeruginosa 3700 [8]: 320 µg/mL
IC50 (MCF-12F cells): 139 ± 8.36 µM
Inhibition zone E. coli 8785 ([9]; peptide 1.4 mg/mL): 0 mm
Inhibition zone E. coli 8785 ([9]; peptide 10 mg/mL): 0 mm
IC50 (MDA-MB-231 cells; MTT, 72 h, read-out: Mean IC50 ± SD MDA-MB-231): 115 ± 4.04 µM
Selectivity Index (SI) MDA-MB-231 (MDA-MB-231 cells; SI = IC50 (MCF-12F)/IC50 (MDA-MB-231)): 1.20
